{"source": "patent US7727736B2", "about": "“Soluble phospholipids for use in clotting factor assays” (The University of North Carolina at Chapel Hill, priority 2003, dated 2010)", "key": {"[1]": {"conditions": "pure C6PS; cited from earlier work"}, "[2]": {"biological_target": "FXa (Homo sapiens, UniProt P00742)", "sequence (P00742 41-179 limits assumed)": "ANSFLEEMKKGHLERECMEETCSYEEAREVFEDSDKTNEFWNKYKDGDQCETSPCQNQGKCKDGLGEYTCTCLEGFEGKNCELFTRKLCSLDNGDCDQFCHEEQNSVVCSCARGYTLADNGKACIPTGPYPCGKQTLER", "sequence (P00742 235-488 limits assumed)": "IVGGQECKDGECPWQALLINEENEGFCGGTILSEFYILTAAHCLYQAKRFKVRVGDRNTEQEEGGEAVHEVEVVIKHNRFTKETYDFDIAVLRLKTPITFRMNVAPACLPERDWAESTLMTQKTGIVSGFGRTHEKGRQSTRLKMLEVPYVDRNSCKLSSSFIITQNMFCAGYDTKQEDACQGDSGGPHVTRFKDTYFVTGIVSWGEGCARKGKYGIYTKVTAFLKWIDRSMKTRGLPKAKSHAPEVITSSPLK", "assay": "Native gel electrophoresis (Ferguson analysis), C6PS bound to FXa", "type": "binding", "parameters": "Human prothrombin and factor Xa; purchased Hematologic Technologies Inc. (Essex Junction, Vt.)", "conditions": "400 μM C6PS", "experimental": "(§1) Native Gel Electrophoresis. This method has been used to document the association of blood coagulation proteins in solution (Majumder, et al. (2002) supra; Majumder, et al. (2003) supra). A mixture of 1 nM FXa and 1 nM FVa was incubated at 37° C. for 2 minutes in the presence and absence of 400 μM C6PS and the two samples were run together with known marker proteins (270 kiloDalton-14.2 kiloDalton; SIGMA, St. Louis, Mo.) on five gels (5, 6, 6.5, 7, and 8% total acrylamide with bisacrylamide/acrylamide being 1/29 in all cases) in a BIORAD® MINI-PROTEAN® II minigel apparatus (BIORAD® Corp., Hercules, Calif.) and stained with colloidal Coomassie blue (Mitra, et al. (1994) supra). FXa and FVa, at these same concentrations and in the presence of 400 μM C6PS, were run separately as controls. Protein retardation coefficients, which depend to a good approximation only on the hydrodynamic size and shape of the protein, were determined for both the marker and unknown proteins (Ferguson (1964) Metabolism 13:985-1002). A log-log plot of the retardation coefficient against the molecular weights of the marker proteins produced a linear curve from which the molecular weight of the FVa•FXa complex was determined from its measured retardation coefficient (Bryan (1977) Anal. Biochem. 78(2):513-9). […]"}, "[3]": {"biological_target": "APC (Homo sapiens, UniProt P04070)", "sequence (P04070 43-197 limits assumed)": "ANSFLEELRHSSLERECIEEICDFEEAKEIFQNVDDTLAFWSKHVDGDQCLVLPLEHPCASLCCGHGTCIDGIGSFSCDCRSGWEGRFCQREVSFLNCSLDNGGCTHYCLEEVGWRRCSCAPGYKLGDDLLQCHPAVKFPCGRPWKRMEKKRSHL", "sequence (P04070 212-461 limits assumed)": "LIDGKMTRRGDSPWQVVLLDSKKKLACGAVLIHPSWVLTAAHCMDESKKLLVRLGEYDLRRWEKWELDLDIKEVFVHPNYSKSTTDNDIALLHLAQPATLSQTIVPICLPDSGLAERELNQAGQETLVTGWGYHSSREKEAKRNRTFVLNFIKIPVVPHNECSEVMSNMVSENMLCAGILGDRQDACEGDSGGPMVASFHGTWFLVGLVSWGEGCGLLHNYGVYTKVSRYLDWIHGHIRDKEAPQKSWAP", "assay": "SPS binding to APC", "conditions": "other experiments", "source_text": "Proteolysis at Arg^506 leads to partial inactivation, but proteolysis at Arg^306 is necessary for full inactivation (Kalafatis & Mann (1993) J. Biol. Chemistry 268 27246; Nicolaes et al., (1995) J. Biol. Chemistry (1995) 270 21158). […] The rate of proteolysis of the bond at Arg^306 increased from undetectable to a value of kcat/KM=3-3.5×10^6 M^−1sec^−1, identical to the rate reported with PS-containing membranes."}, "[4]": {"biological_target": "T1, FVa2 (Homo sapiens, UniProt P12259)", "T1 construct": "from tissue; host or cells: fresh frozen human plasma (American Red Cross Center, Durham, N.C.)", "T1 sequence (P12259 29-737 limits assumed)": "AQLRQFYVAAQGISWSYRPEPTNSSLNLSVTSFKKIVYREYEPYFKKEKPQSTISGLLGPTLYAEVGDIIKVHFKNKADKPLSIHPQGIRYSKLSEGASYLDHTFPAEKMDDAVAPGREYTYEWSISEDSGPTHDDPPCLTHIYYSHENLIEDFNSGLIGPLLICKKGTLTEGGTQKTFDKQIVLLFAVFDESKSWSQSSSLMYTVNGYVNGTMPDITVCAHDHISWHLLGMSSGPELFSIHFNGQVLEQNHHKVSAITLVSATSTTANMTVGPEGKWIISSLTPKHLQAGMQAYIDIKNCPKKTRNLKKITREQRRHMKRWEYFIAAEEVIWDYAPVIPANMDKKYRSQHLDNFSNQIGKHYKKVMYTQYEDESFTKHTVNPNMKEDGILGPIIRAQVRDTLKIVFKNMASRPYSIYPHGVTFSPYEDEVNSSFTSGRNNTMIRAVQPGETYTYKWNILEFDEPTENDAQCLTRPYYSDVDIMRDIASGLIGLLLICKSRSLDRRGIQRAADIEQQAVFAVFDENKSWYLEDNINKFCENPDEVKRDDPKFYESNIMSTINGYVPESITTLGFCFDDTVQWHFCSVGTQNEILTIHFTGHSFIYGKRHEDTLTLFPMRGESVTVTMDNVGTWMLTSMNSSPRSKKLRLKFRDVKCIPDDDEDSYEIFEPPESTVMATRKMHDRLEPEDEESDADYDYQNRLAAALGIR", "T1 sequence (P12259 1574-2224 limits assumed)": "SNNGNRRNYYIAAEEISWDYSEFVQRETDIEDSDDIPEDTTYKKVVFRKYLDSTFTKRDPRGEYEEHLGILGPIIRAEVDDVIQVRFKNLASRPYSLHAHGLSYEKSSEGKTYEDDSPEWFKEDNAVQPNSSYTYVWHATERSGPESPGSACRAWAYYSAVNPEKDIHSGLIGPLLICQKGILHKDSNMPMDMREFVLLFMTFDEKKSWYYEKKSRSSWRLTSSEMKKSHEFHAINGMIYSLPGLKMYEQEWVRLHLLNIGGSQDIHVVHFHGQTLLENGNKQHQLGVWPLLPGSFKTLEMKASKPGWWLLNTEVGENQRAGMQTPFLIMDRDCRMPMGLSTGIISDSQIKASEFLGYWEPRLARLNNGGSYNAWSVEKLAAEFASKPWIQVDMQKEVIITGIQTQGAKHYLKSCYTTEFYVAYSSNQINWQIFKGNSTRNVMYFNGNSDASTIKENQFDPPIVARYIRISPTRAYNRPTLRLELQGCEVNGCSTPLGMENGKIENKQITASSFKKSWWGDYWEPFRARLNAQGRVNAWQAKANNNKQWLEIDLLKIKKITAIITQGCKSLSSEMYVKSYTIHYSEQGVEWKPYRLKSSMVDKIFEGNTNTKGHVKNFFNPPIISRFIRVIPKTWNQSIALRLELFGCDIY", "assay": "Native gel electrophoresis (Ferguson analysis), C6PS bound to FVa2", "type": "binding", "conditions": "400 μM C6PS", "experimental": "as §1"}}}
{"smiles": "CCCCCC(=O)OC[C@H](COP(=O)(O)OC[C@H](N)C(=O)O)OC(=O)CCCCC", "note": "[C6PS, 1,2-dicaproyl-sn-glycero-3-phospho-L-serine]", "values": [{"measurement": "monomers in minimal micelle predicted for C6PS", "setting": "[1]", "value": "~200", "unit": "monomers"}, {"measurement": "molecules of C6PS bound to FXa from molecular mass", "setting": "[2]", "value": 1.5, "unit": "molecules"}, {"measurement": "Kd", "setting": "[3]", "value": "~1", "unit": "µM"}, {"measurement": "molecules of C6PS bound to FVa2 from molecular mass", "setting": "[4]", "value": 4.2, "unit": "molecules"}]}
